Assay results: patent publication US8758816B2, “Compositions comprising azelastine and methods of use thereof” (priority 2004, dated 2014)
Structures can show the parent of a compound that is named as a salt.

System: patients with seasonal allergic rhinitis (SAR)
Assay: MP 428 study: Adult Rhinoconjunctivitis Quality of Life Questionnaire outcomes, change from baseline
Format: in vivo, human
Details: Day 14/ET; Intent-to-Treat Population

Structure (SMILES)	RQLQ Change From Baseline in Activity, LS Mean	RQLQ Change From Baseline in Activity, Mean	RQLQ Change From Baseline in Activity, Median	RQLQ Change From Baseline in Emotional, LS Mean	RQLQ Change From Baseline in Emotional, Mean	RQLQ Change From Baseline in Emotional, Median	RQLQ Change From Baseline in Eye Symptoms, LS Mean	RQLQ Change From Baseline in Eye Symptoms, Mean	RQLQ Change From Baseline in Eye Symptoms, Median	RQLQ Change From Baseline in Nasal Symptoms, LS Mean	RQLQ Change From Baseline in Nasal Symptoms, Mean	RQLQ Change From Baseline in Nasal Symptoms, Median	RQLQ Change From Baseline in Non-nose/eye Symptoms, LS Mean	RQLQ Change From Baseline in Non-nose/eye Symptoms, Mean	RQLQ Change From Baseline in Non-nose/eye Symptoms, Median	RQLQ Change From Baseline in Overall Score, LS Mean	RQLQ Change From Baseline in Overall Score, Mean	RQLQ Change From Baseline in Overall Score, Median	RQLQ Change From Baseline in Practical Problems, LS Mean	RQLQ Change From Baseline in Practical Problems, Mean	other results
CN1CCCC(n2nc(Cc3ccc(Cl)cc3)c3ccccc3c2=O)CC1 (racemic) [Azelastine, (±)-1-(2H)-phthalazinone, 4-[(4-chlorophenyl)methyl]-2-(hexahydro-1-methyl-1H-azepin-4-yl)-, mono-hydrochloride]	−1.37	−1.25	−1.00	−1.26	−1.13	−1.00	−1.64	−1.49	−1.25	−1.46	−1.31	−1.25	−0.88	−0.82	−0.86	−1.21	−1.11	−1.13	−1.59	−1.50	RQLQ Change From Baseline in Practical Problems, Median: −1.33; RQLQ Change From Baseline in Sleep, LS Mean: −1.23; RQLQ Change From Baseline in Sleep, Mean: −1.02; RQLQ Change From Baseline in Sleep, Median: −1.00
CCC(=O)O[C@]1(C(=O)SCF)[C@H](C)C[C@H]2[C@@H]3C[C@H](F)C4=CC(=O)C=C[C@]4(C)[C@@]3(F)[C@@H](O)C[C@@]21C [Fluticasone, fluticasone propionate]	−1.52	−1.50	−1.33	−1.42	−1.50	−1.25	−1.51	−1.53	−1.75	−1.72	−1.74	−1.50	−1.19	−1.23	−1.14	−1.47	−1.49	−1.37	−1.74	−1.76	RQLQ Change From Baseline in Practical Problems, Median: −1.67; RQLQ Change From Baseline in Sleep, LS Mean: −1.23; RQLQ Change From Baseline in Sleep, Mean: −1.26; RQLQ Change From Baseline in Sleep, Median: −1.33
